From ChEMBL document CHEMBL4190224, “Xanthohumol Blocks Proliferation and Migration of Vascular Smooth Muscle Cells in Vitro and Reduces Neointima Formation in Vivo” (J Nat Prod, 2017)
The source made the active and inactive calls. No cut-off for these calls is given here.

How the values were obtained:
VSMC [1] = assay: Inhibition of PDGF-BB-induced rat VSMC proliferation preincubated for 30 mins followed by PDGF-BB addition measured after 48 hrs by resazurin assay; type: functional, cell-based
VSMC [2] = assay: Cytotoxicity against rat VSMC at 1 to 15 uM after 48 hrs by LDH release assay; type: cell-based
VSMC [3] = assay: Antimigratory activity against PDGF-BB-stimulated rat VSMC at 15 uM preincubated for 30 mins followed by PDGF-BB addition measured after 20 hrs by scratch wound-healing assay; type: functional, cell-based
Mus musculus = assay: Inhibition of cuff-induced restenosis in C57BL/6 mouse femoral artery cuff model assessed as reduction in neointima formation dosed via local application using compound dissolved on F-127 gel measured after 2 weeks by hematoxylin and eosin staining-based microscopic analysis; type: functional, organism-based

COc1cc(O)c(CC=C(C)C)c(O)c1C(=O)/C=C/c1ccc(O)cc1 [XANTHOHUMOL]
IC50 (VSMC [1]): 3.49 µM
inhibition (VSMC [1]): Dose-dependent effect
Activity (VSMC [2]): Non-Toxic
Activity (VSMC [3]): Active
Activity (Mus musculus): Active
